Experimental data reported in patent US8445674B2, “Heterocyclyl compounds” (Hoffmann-La Roche Inc, priority 2009, dated 2013).

Biological target: T1, human chemokine receptor 2 isoform B (Homo sapiens, UniProt P41597)
T1 construct: host or cells: CHOK1-CCR2B-A5 cells (CHO-K1)
T1 sequence (P41597 1-360 isoform P41597-2): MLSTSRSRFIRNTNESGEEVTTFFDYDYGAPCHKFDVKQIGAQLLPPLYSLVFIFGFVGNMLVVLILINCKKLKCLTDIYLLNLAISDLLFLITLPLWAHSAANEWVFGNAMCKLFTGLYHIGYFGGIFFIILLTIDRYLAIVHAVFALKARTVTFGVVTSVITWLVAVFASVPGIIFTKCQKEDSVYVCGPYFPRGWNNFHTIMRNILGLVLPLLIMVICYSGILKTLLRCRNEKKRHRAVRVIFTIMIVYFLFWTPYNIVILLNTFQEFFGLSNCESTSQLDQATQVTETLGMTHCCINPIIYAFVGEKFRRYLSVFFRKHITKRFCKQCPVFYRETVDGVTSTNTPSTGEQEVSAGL
Assay: Calcium mobilization assay (FLIPR, antagonist activity against MCP-1)
Type: cell-based
Settings: Ca mobilisation assay, CHOK1-CCR2B-A5 cells, inhibition of calcium increase induced by 20 nM MCP-1
Description: Calcium Mobilization Assay
CHOK1-CCR2B-A5 cells (from Euroscreen) stably overexpressing the human chemokine receptor 2 isoform B were cultured in Nutrient Hams F12 medium supplemented with 5% FBS, 100 U/ml penicillin, 100 μg/ml streptomycin, 400 μg/ml G418 and 5 μg/ml puromycin.
For the assay cells were grown overnight in 384-well black clear flat bottom polystyrene plates (Costar) at 37° C. at 5% CO2. After washing with DMEM, 20 mM Hepes, 2.5 mM probenecid, 0.1% BSA (DMEM assay buffer) cells were loaded with 4 μM Fluo-4 in the same DMEM assay buffer for 2 hours at 30° C. Excess dye was removed and cells were washed with DMEM assay buffer. 384-well compound plates were prepared with DMEM assay buffer/0.5% DMSO with or without various concentrations of test compounds. Usually compounds were tested for agonist and antagonist activity.
Test compounds were added to the assay plate and agonist activity was monitored as fluorescence for 80 seconds with a FLIPR (488 nm excitation; 510-570 nm emission; Molecular Devices). After 20-30 min. of incubation at 30° C., 20 nM MCP-1 (R&D; Roche) was added and fluorescence was monitored again for 80 seconds. Increases in intracellular calcium are reported as maximum fluorescence after agonist exposure minus basal fluorescence before exposure. Antagonist activity is indicated as inhibitor concentration required for 50% inhibition of specific calcium increases.

SMILES | IC50 [nM]
C[C@H]1C(=O)N(CCC(C)(C)C(=O)N2CCC3(CC3)[C@H](O)C2)CCN1C(=O)Nc1ccc(OC(F)(F)F)c(Cl)c1 [Example 51, (S)-4-[4-((S)-4-Hydroxy-6-aza-spiro[2.5]oct-6-yl)-3,3-dimethyl-4-oxo-butyl]-2-methyl-3-oxo-piperazine-1-carboxylic acid (3-chloro-4-trifluoromethoxy-phenyl)-amide] | 750
COC(=O)[C@H](CCC(=O)N1CCC2(CC2)[C@H](O)C1)N1CCN(c2ccc(C(F)(F)F)c(Cl)c2)CCC1=O [Example 123, (S)-2-[4-(3-Chloro-4-trifluoromethyl-phenyl)-7-oxo-[1,4]diazepan-1-yl]-5-((S)-4-hydroxy-6-aza-spiro[2.5]oct-6-yl)-5-oxo-pentanoic acid methyl ester] | 63.1
COC(=O)C(CC(=O)N1CCC2(CC2)[C@H](O)C1)N1CCN(C(=O)/C=C/c2ccc(Cl)c(Cl)c2)CCC1=O (stereo partly drawn) [Example 7, (R,S)-2-{4-[(E)-3-(3,4-Dichloro-phenyl)-acryloyl]-7-oxo-[1,4]diazepan-1-yl}-4-((S)-4-hydroxy-6-aza-spiro[2.5]oct-6-yl)-4-oxo-butyric acid methyl ester] | 453
C[C@@H]1CN([C@H](CO)CCC(=O)N2CCC3(CC3)[C@H](O)C2)C(=O)CCN1c1ccc(C(F)(F)F)c(C(F)(F)F)c1 [Example 128, (R)-1-(3,4-bis-trifluoromethyl-phenyl)-4-[(S)-4-((S)-4-hydroxy-6-aza-spiro[2.5]oct-6-yl)-1-hydroxymethyl-4-oxo-butyl]-2-methyl-[1,4]diazepan-5-one] | 4.6
CN(C)C(=O)[C@@H](CCO)N1CCN(C(=O)/C=C/c2cccc(Cl)c2)CCC1=O [Example 14, (R)-2-{4-[(E)-3-(3-Chloro-phenyl)-acryloyl]-7-oxo-[1,4]diazepan-1-yl}-4-hydroxy-N,N-dimethyl-butyramide] | 907
COC(=O)C(CC(=O)N(C)C)N1CCN(C(=O)/C=C/c2cccc(Cl)c2)CCC1=O (racemic) [Example 12, rac-(2-{4-[(E)-3-(3-Chloro-phenyl)-acryloyl]-7-oxo-[1,4]diazepan-1-yl}-N,N-dimethyl-succinamic acid methyl ester)] | 1940
O=C(/C=C/c1cccc(Cl)c1)N1CCC(=O)N(C(CO)CC(=O)N2CCC3(CC3)[C@H](O)C2)CC1 (stereo partly drawn) [Example 11, 1-[(E)-3-(3-Chloro-phenyl)-acryloyl]-4-[(R,S)-3-((S)-4-hydroxy-6-aza-spiro[2.5]oct-6-yl)-1-hydroxymethyl-3-oxo-propyl]-[1,4]diazepan-5-one] | 464
C[C@@H]1CN(CCC(=O)N2CCC3(CC3)[C@H](O)C2)C(=O)CCN1C(=O)/C=C/c1cccc(Cl)c1 [Example 104, (R)-1-[(E)-3-(3-Chloro-phenyl)-acryloyl]-4-[3-((S)-4-hydroxy-6-aza-spiro[2.5]oct-6-yl)-3-oxo-propyl]-2-methyl-[1,4]diazepan-5-one] | 100
C[C@H]1C(=O)N([C@@H](CCC(=O)N2CCC3(CC3)[C@H](O)C2)C(=O)O)CCN1C(=O)Nc1ccc(C(F)(F)F)c(Cl)c1 [Example 140, (S)-2-[(S)-4-(3-Chloro-4-trifluoromethyl-phenylcarbamoyl)-3-methyl-2-oxo-piperazin-1-yl]-5-((S)-4-hydroxy-6-aza-spiro[2.5]oct-6-yl)-5-oxo-pentanoic acid] | 751
C[C@H]1C(=O)N(CCC(=O)N2CCC3(CC3)[C@H](O)C2)CCN1C(=O)/C=C/c1ccc(F)c(Cl)c1 [Example 64, (S)-4-[(E)-3-(3-Chloro-4-fluoro-phenyl)-acryloyl]-1-[3-((S)-4-hydroxy-6-aza-spiro[2.5]oct-6-yl)-3-oxo-propyl]-3-methyl-piperazin-2-one] | 1240
C[C@H]1C(=O)N(CCC(=O)N2CCCC(O)C2)CCN1C(=O)Nc1ccc(Cl)c(Cl)c1 (stereo partly drawn) [Example 17, (S)-4-[3-((R,S)-3-Hydroxy-piperidin-1-yl)-3-oxo-propyl]-2-methyl-3-oxo-piperazine-1-carboxylic acid (3,4-dichloro-phenyl)-amide] | 3170
C[C@H]1C(=O)N(CCCC(=O)N2CCC3(CC3)[C@H](O)C2)CCN1c1ccc(Cl)c(Cl)c1 [Example 59, (S)-4-(3,4-dichloro-phenyl)-1-[4-((S)-4-hydroxy-6-aza-spiro[2.5]oct-6-yl)-4-oxo-butyl]-3-methyl-piperazin-2-one] | 23.2
CC1CCN(C(=O)CCN2CCN(C(=O)/C=C/c3ccc(Cl)c(Cl)c3)CCC2=O)CC1O (racemic) [Example 71, (rac)-1-[(E)-3-(3,4-Dichloro-phenyl)-acryloyl]-4-[3-(3-hydroxy-4-methyl-piperidin-1-yl)-3-oxo-propyl]-[1,4]diazepan-5-one] | 681
O=C(/C=C/c1ccc(Cl)c(Cl)c1)N1CCC(=O)N(CCC(=O)N2CCCC(CO)C2)CC1 (racemic) [Example 68, (rac)-1-[(E)-3-(3,4-Dichloro-phenyl)-acryloyl]-4-[3-(3-hydroxymethyl-piperidin-1-yl)-3-oxo-propyl]-[1,4]diazepan-5-one] | 758
C[C@H]1C(=O)N(CCCC(=O)N2CCC3(CC3)[C@H](O)C2)CCN1c1ccc(C(F)(F)F)c(C(F)(F)F)c1 [Example 130, (S)-4-(3,4-Bis-trifluoromethyl-phenyl)-1-[4-((S)-4-hydroxy-6-aza-spiro[2.5]oct-6-yl)-4-oxo-butyl]-3-methyl-piperazin-2-one] | 36.8

Continued, values first:

IC50 [nM] | SMILES
8 | O=C(CC[C@@H](CO)N1CCN(c2ccc(C(F)(F)F)c(Cl)c2)CCC1=O)N1CCC2(CC2)[C@H](O)C1 [Example 124, 1-(3-Chloro-4-trifluoromethyl-phenyl)-4-[(S)-4-((S)-4-hydroxy-6-aza-spiro[2.5]oct-6-yl)-1-hydroxymethyl-4-oxo-butyl]-[1,4]diazepan-5-one]
969 | CC1(CO)CCCCN1C(=O)CCN1CCN(C(=O)/C=C/c2ccc(Cl)c(Cl)c2)CCC1=O (racemic) [Example 75, (rac)-1-[(E)-3-(3,4-Dichloro-phenyl)-acryloyl]-4-[3-(2-hydroxymethyl-2-methyl-piperidin-1-yl)-3-oxo-propyl]-[1,4]diazepan-5-one]
1140 | C[C@H]1C(=O)N(CCC(C)(C)C(=O)N2CCC3(CC3)[C@H](O)C2)CCN1C(=O)Nc1ccc(C(F)(F)F)c(Cl)c1 [Example 50, (S)-4-[4-((S)-4-Hydroxy-6-aza-spiro[2.5]oct-6-yl)-3,3-dimethyl-4-oxo-butyl]-2-methyl-3-oxo-piperazine-1-carboxylic acid (3-chloro-4-trifluoromethyl-phenyl)-amide]
610 | C[C@@H]1CN(CCCC(=O)N2CCC3(CC3)[C@H](O)C2)C(=O)C=CN1c1ccc(C(F)(F)F)c(Cl)c1 [Example 65, (R)-1-(3-Chloro-4-trifluoromethyl-phenyl)-4-[4-((S)-4-hydroxy-6-aza-spiro[2.5]oct-6-yl)-4-oxo-butyl]-2-methyl-1,2,3,4-tetrahydro-[1,4]diazepin-5-one]
4000 | O=C1NC(=O)C2(CCN(C(=O)CCN3CCN(C(=O)/C=C/c4ccc(Cl)c(Cl)c4)CCC3=O)CC2)N1 [Example 89, 8-(3-{4-[(E)-3-(3,4-Dichloro-phenyl)-acryloyl]-7-oxo-[1,4]diazepan-1-yl}-propionyl)-1,3,8-triaza-spiro[4.5]decane-2,4-dione]
1320 | CNC(=O)[C@H](CCC(=O)N1CCC2(CC2)[C@H](O)C1)N1CCN(C(=O)Nc2ccc(C(F)(F)F)c(Cl)c2)[C@@H](C)C1=O [Example 142, (S)-4-[(S)-4-((S)-4-Hydroxy-6-aza-spiro[2.5]oct-6-yl)-1-methylcarbamoyl-4-oxo-butyl]-2-methyl-3-oxo-piperazine-1-carboxylic acid (3-chloro-4-trifluoromethyl-phenyl)-amide]
3.5 | C[C@H]1C(=O)N(CCCC(=O)N2CCC3(CC3)[C@H](O)C2)[C@H](C(N)=O)CN1C(=O)Nc1ccc(C(F)(F)F)c(Cl)c1 [Example 147, (3S,6S)—N1-(3-chloro-4-(trifluoromethyl)phenyl)-4-(4-((S)-4-hydroxy-6-azaspiro[2.5]octan-6-yl)-4-oxobutyl)-6-methyl-5-oxopiperazine-1,3-dicarboxamide]
2.7 | C[C@H]1C(=O)N(CC(O)CC(=O)N2CCC3(CC3)[C@H](O)C2)CCN1C(=O)Nc1ccc(OC(F)(F)F)c(Cl)c1 (stereo partly drawn) [Example 44, (S)-4-[(R,S)-2-Hydroxy-4-((S)-4-hydroxy-6-aza-spiro[2.5]oct-6-yl)-4-oxo-butyl]-2-methyl-3-oxo-piperazine-1-carboxylic acid (3-chloro-4-trifluoromethoxy-phenyl)-amide]
150 | O=C(/C=C/c1ccc(Cl)c(Cl)c1)N1CCC(=O)N(CC(=O)N2CCCCC2)CC1 [Example 95, 1-[(E)-3-(3,4-Dichloro-phenyl)-acryloyl]-4-(2-oxo-2-piperidin-1-yl-ethyl)-[1,4]diazepan-5-one]
